Tests used:
[1] = tested on: MDA-MB-468 cells expressing mCherry-EGFP-LC3; assay: Autophagic flux by flow cytometry; assay type: cell-based; conditions: 48 h
Protocol: To investigate the mechanism by which Compound 349 potentiates the cytotoxic effects of PARP inhibitors, MDA-MB-468 cells expressing mCherry-EGFP-LC3 were treated with olaparib (30 μM) and/or Compound 349 (10 μM) for 48 h and then quantified for autophagic flux. For these experiments, MDA-MB-468 cells stably expressing the mCherry-GFP-LC3 fusion protein were plated in 6-well plates at a density of 6×10^5 cells/well in growth media DMEM/F12+GlutaMAX-1 (Gibco) supplemented with 10% FBS (Gibco) and 1× Anti-Anti (Gibco) and allowed to grow overnight. Cells were treated, trypsinized, and then resuspended in PBS, and analytical cytometry was performed using an LSRFortessa 14-color (BD Biosciences) with a 488 nm and […] laser. For flow cytometry, wild type MDA-MB-468 cells were used as the unstained control, and MDA-MB-468 cells expressing either mCherry or GFP were used for comparison. Events of 10,000 were collected for each sample.

[2] = tested on: MDA-MB-468 cells; assay: CellTiter-Glo cell viability dose-response matrix, synergy by Combenefit (Loewe model); assay type: cell-based; conditions: 72 h; for concentrations at which significant synergy was observed: combination of Compound 349 and olaparib
Protocol: Different concentrations of Compound 349 with olaparib (FIG. 13A) were tested to measure the combined effect of inhibiting both ULK1/2 and PARP. For these experiments, MDA-MB-468 cells were treated with Compound 349 (0-15 μM) and olaparib (0-15 μM) in a dose-response matrix for 72 h, and cell viability was assessed by a CellTiter-Glo assay, and the synergistic effect was analyzed with Combenefit using the Loewe model.

[3] = tested on: A549 cells; assay: A549 xenografts, ULK inhibitor alone and in combination with carboplatin; assay type: in vivo, nude mice
Protocol: A549 cells (5M cells) were injected bilaterally into the flanks of thirty-six nude mice to create tumor xenografts in order to assess the efficacy of Compound 14 in treating non-small cell lung cancer tumors both alone and in combination with carboplatin, the current standard of care therapy for non-small cell lung cancer. After 11 days of letting tumor cells proliferate (at which point tumors were ˜50 mm^3 in volume), administration of carboplatin, Compound 14, or combinations began. One cohort of six mice received 20 mg/kg twice daily doses of Compound 14 alone, one cohort of six mice received 30 mg/kg twice daily doses of Compound 14 alone, one cohort of six mice received 25 mg/kg doses of carboplatin every three days, one cohort of six mice received 20 mg/kg twice daily doses of Compound 14 in conjunction with 25 mg/kg doses of carboplatin every three days, one cohort of six mice received 30 mg/kg twice daily doses of Compound 14 in conjunction with 25 mg/kg doses of carboplatin every three days, and the remaining six mice were treated with vehicle. Treatment and monitoring was continued until day 53 post inoculation of tumor cells (42 days of treatment).

[4] = tested on: A549 cells; assay: A549 xenograft large tumors, ULK inhibitor alone versus carboplatin; assay type: in vivo, nude mice; conditions: A549 large tumors (over 200 mm^3 at start); carboplatin 25 mg/kg every three days; day 72
Protocol: A549 cells (5M cells) were injected bilaterally into the flanks of forty-six nude mice to create tumor xenografts in order to assess the efficacy of Compound 14 in treating larger non-small cell lung cancer tumors compared to carboplatin, the current standard of care therapy for non-small cell lung cancer. After 40 days of letting tumor cells proliferate (at which point tumors were over 200 mm^3 in volume), administration of carboplatin or Compound 14 was initiated. One cohort of twelve mice received 20 mg/kg twice daily doses of Compound 14, one cohort of ten mice received 30 mg/kg twice daily doses of Compound 14, one cohort of seven mice received 25 mg/kg doses of carboplatin every three days, one cohort of seven mice received 40 mg/kg once daily doses of Compound 14, and the remaining ten mice were treated with vehicle. Treatment and monitoring was continued until day 72 post inoculation of tumor cells (32 days of treatment).

[5] = target: T1, ULK1 (Homo sapiens, UniProt O75385); assay: ULK1 inhibition assay; assay type: biochemical; conditions: * = tested as a mixture of regioisomers
T1 sequence (O75385 1-1050): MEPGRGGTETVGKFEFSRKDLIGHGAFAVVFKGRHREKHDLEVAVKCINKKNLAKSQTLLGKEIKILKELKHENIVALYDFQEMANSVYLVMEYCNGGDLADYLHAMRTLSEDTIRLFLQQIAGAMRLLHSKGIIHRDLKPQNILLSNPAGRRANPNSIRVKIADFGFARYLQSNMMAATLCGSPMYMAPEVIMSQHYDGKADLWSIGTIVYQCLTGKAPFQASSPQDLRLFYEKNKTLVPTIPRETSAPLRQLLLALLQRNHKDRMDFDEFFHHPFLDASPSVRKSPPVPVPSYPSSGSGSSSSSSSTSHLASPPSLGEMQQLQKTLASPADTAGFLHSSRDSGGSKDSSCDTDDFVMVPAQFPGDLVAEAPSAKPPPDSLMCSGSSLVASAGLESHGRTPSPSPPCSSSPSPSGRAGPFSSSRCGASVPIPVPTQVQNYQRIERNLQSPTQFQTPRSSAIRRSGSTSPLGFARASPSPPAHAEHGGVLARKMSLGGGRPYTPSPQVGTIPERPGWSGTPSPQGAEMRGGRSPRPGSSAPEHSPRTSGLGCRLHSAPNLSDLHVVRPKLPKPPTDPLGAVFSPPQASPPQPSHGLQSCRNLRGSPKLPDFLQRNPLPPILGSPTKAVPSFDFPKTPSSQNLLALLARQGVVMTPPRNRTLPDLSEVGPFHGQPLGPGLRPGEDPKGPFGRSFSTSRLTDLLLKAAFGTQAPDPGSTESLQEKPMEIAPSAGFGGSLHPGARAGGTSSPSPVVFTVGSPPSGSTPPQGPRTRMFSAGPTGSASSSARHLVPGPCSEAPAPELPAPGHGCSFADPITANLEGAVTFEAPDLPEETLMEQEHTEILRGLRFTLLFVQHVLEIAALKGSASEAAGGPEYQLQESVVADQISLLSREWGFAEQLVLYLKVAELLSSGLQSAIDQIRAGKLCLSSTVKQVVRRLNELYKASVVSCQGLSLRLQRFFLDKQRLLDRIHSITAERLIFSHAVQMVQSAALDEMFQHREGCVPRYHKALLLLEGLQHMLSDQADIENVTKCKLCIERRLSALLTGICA

[6] = tested on: MIA PaCa-2 cells; assay: MIA PaCa-2 xenografts, ULK inhibitor alone versus gemcitabine; assay type: in vivo, nude mice; conditions: day 42, Compound 14 20 mg/kg twice daily, gemcitabine dose not given
Protocol: MIA PaCa-2 cells were injected bilaterally into the flanks of nude mice to create tumor xenografts in order to assess the efficacy of Compound 14 in treating pancreatic cancer tumors compared to gemcitabine, a current standard of care therapy for pancreatic cancer. After 3 days of letting tumor cells proliferate (at which point tumors were ˜100 mm^3 in volume), administration of gemcitabine or Compound 14 was initiated. One cohort received 20 mg/kg twice daily doses of Compound 14, one cohort received gemcitabine, and the remaining cohort was treated with vehicle. Treatment and monitoring were continued until day 42 post inoculation of tumor cells (30 days of treatment).

Question: Which results are given for O=C(c1cc(Cc2n[nH]c(=O)c3ccccc23)ccc1F)N1CCN(C(=O)C2CC2)CC1 [olaparib, reference compound]?
Answer: increase in autophagic flux compared with control cells ([1]; olaparib 30 μM alone): approximately 30%; concentrations at which significant synergy was observed [2]: 3.8 to 15 µM

Question: N.N.O=C([O-])C1(C(=O)[O-])CCC1.[Pt+2] [carboplatin, reference compound] was tested. Which “final tumor average volume” value ([3]; carboplatin 25 mg/kg every three days alone, day 53) did it give?
Answer: ~200 mm^3

Question: And the “tumor growth compared to the control” value ([3]; monotherapy: carboplatin 25 mg/kg every three days, Compound 14 20 mg/kg twice daily)?
Answer: markedly reduced growth compared to the control

Question: What about the “tumor volume by the end of the study” value [4] of the same compound?
Answer: above 500 mm^3

Question: How did the IC50 [5] turn out when COc1ccc(Nc2ncc(C(F)(F)F)c(NC3CC3)n2)cc1OC [Compound 349] was run?
Answer: < 200 nM

Question: And the “olaparib-induced increase in autophagic flux” value ([1]; Compound 349 10 μM concomitant with olaparib 30 μM)?
Answer: significantly suppressed the olaparib-induced increase in autophagic flux to a level similar to that observed in untreated control cells

Question: What about the antiproliferative synergy ([2]; Compound 349 (0-15 μM) with olaparib (0-15 μM)) of the same compound?
Answer: strong antiproliferative synergy

Question: And the maximum synergy score ([2]; Compound 349 (0-15 μM) with olaparib (0-15 μM), Loewe model)?
Answer: 34

Question: And the “concentrations at which significant synergy was observed” value [2]?
Answer: 0.021 to 15 µM

Question: How did the final tumor volume [6] turn out when Nc1ccn([C@@H]2O[C@H](CO)[C@@H](O)C2(F)F)c(=O)n1 [gemcitabine, reference compound] was run?
Answer: ~800 mm^3
